EC50 data for 36 molecules are collected here from patent US10584115B2, “Substituted pyridine and pyrazine BMI-1 inhibitors” (PTC Therapeutics, Inc., priority 2013, dated 2020).

Broadly, the EC50 is the concentration giving half of the maximal effect.

The test system of one assay is Bmi-1 protein. Kind of assay: Sandwich ELISA Assay (Bmi-1 protein level in HT-1080 cells after compound treatment). The settings on record: Table 1, Bmi-1 sandwich ELISA, read-out: ELISA EC50 value for Bmi-1 protein. The format is cell-based. The gist of the method: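 HT-1080 cells exposed to compounds for 40–48 h at 37 °C (0.5% DMSO final), then lysed. Bmi-1 in lysates measured by sandwich ELISA (mouse monoclonal capture, rabbit anti-Bmi-1 detection, HRP anti-rabbit, TMB), read at OD450 with OD570 reference against a recombinant Bmi-1 standard curve (0–8000 pg/mL).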
A general note: In an ELISA, binding on a coated surface is turned into a signal by an enzyme label.
Take `Cc1nc2cc(Cl)ccc2n1-c1cc(C#N)cc(Nc2ccc(C(F)(F)F)cc2)n1` [compound 344, 2-(5-chloro-2-methyl-1H-benzimidazol-1-yl)-6-{[4-(trifluoromethyl)phenyl]amino}pyridine-4-carbonitrile]: the EC50 was in the range of 100 to 3000 nM.

With `Cc1ccc(Nc2cccc(-n3c(C)nc4ccccc43)n2)cc1` [Cpd 581, 6-(2-methyl-1H-benzimidazol-1-yl)-N-(4-methylphenyl)pyridin-2-amine], the EC50 is 1 to 10 nM. On the same count and under the same terms, the figure for `Cc1nc2ccc(Cl)cc2n1-c1cncc(Nc2ccc(OC(F)(F)F)cc2)n1` [compound 220, 6-(6-chloro-2-methyl-1H-benzimidazol-1-yl)-N-[4-(trifluoromethoxy)phenyl]pyrazin-2-amine] is 10 to 100 nM; for `Cc1nc2ccc(F)cc2n1-c1cccc(Nc2ccc(C(F)(F)F)cc2)n1` [Cpd 607, 6-(6-fluoro-2-methyl-1H-benzimidazol-1-yl)-N-[4-(trifluoromethyl)phenyl]pyridin-2-amine] it is 10 to 100 nM; for `FC(F)Oc1ccc(Nc2cncc(-c3c(C(F)(F)F)nc4n3CCCC4)n2)cc1` [Cpd 233, N-[4-(difluoromethoxy)phenyl]-6-[2-(trifluoromethyl)-5,6,7,8-tetrahydroimidazo[1,2-a]pyridin-3-yl]pyrazin-2-amine] it is 1 to 10 nM. Still for that read-out and setting: for `Cc1nc2ncc(Cl)cc2n1-c1cncc(Nc2ccc(OC(F)F)c(F)c2)n1` [compound 541, 6-(6-chloro-2-methyl-1H-imidazo[4,5-b]pyridin-1-yl)-N-[4-(difluoromethoxy)-3-fluorophenyl]pyrazin-2-amine] the value was 1 to 10 nM; for `CCc1nc2cnccc2n1-c1cncc(Nc2ccc(C(F)(F)F)cc2)n1` [compound 370, 6-(2-ethyl-1H-imidazo[4,5-c]pyridin-1-yl)-N-[4-(trifluoromethyl)phenyl]pyrazin-2-amine], 100 to 3000 nM.

Turning to `N#Cc1cc(Nc2ccc(C(F)(F)F)c(F)c2)nc(-c2c(CO)nc3ccc(F)cn23)c1` [compound 395, 2-[6-fluoro-2-(hydroxymethyl)imidazo[1,2-a]pyridin-3-yl]-6-{[3-fluoro-4-(trifluoromethyl)phenyl]amino}pyridine-4-carbonitrile], the EC50 is 100 to 3000 nM. Take `Cc1nc2cc(F)c(F)cc2n1-c1cc(C#N)cc(Nc2ccc(C(F)(F)F)c(F)c2)n1` [compound 359, 2-(5,6-difluoro-2-methyl-1H-benzimidazol-1-yl)-6-{[3-fluoro-4-(trifluoromethyl)phenyl]amino}pyridine-4-carbonitrile]: the EC50 is 100 to 3000 nM. `Oc1ccc2nc(C(F)(F)F)c(-c3cccc(Nc4ccc(C(F)(F)F)cc4)n3)n2c1` [compound 111, 2-(trifluoromethyl)-3-(6-{[4-(trifluoromethyl)phenyl]amino}pyridin-2-yl)imidazo[1,2-a]pyridin-6-ol]: the EC50 lay within 10 to 100 nM. On the same count and under the same terms, for `Cc1ccc(Nc2cncc(-n3c(C)nc4ccccc43)n2)c(O)c1` [compound 582, 5-methyl-2-{[6-(2-methyl-1H-benzimidazol-1-yl)pyrazin-2-yl]amino}phenol] the value was 1 to 10 nM; for `FC(F)Oc1ccc(Nc2cccc(-c3c(C(F)(F)F)nc4ccccn34)n2)cc1` [Cpd 27, N-[4-(difluoromethoxy)phenyl]-6-[2-(trifluoromethyl)imidazo[1,2-a]pyridin-3-yl]pyridin-2-amine], 1 to 10 nM; for `Fc1ccc2nc(C(F)(F)F)c(-c3cccc(Nc4ccc(C(F)(F)F)cc4)n3)n2c1` [compound 411, 6-[6-fluoro-2-(trifluoromethyl)imidazo[1,2-a]pyridin-3-yl]-N-[4-(trifluoromethyl)phenyl]pyridin-2-amine], 10 to 100 nM. For the molecule `Cc1nn(C)c(Cl)c1-c1cncc(Nc2ccc(C(F)(F)F)cc2)n1` [compound 412, 6-(5-chloro-1,3-dimethyl-1H-pyrazol-4-yl)-N-[4-(trifluoromethyl)phenyl]pyrazin-2-amine], the EC50 lay in the range of 1 to 10 nM. For the molecule `Cc1nc2ccccc2n1-c1cncc(Nc2cc(F)c(C(F)(F)F)c(F)c2)n1` [compound 645, N-[3,5-difluoro-4-(trifluoromethyl)phenyl]-6-(2-methyl-1H-benzimidazol-1-yl)pyrazin-2-amine], the EC50 is 10 to 100 nM. As to `COc1ccc2nc(C(F)(F)F)c(-c3cncc(Nc4ccc(C)cc4)n3)n2c1` [Cpd 682, 6-[6-methoxy-2-(trifluoromethyl)imidazo[1,2-a]pyridin-3-yl]-N-(4-methylphenyl)pyrazin-2-amine], the EC50 was 100 to 3000 nM. In the case of `CCc1nc2ncccc2n1-c1cncc(Nc2ccc(C(F)(F)F)cc2)n1` [compound 83, 6-(2-ethyl-1H-imidazo[4,5-b]pyridin-1-yl)-N-[4-(trifluoromethyl)phenyl]pyrazin-2-amine], the EC50 lay in the range of 10 to 100 nM. In the case of `Cc1ccc(Nc2cc(-n3c(C)ccc3C)cc(-n3c(C)nc4ccccc43)n2)cc1` [compound 617, 4-(2,5-dimethyl-1H-pyrrol-1-yl)-6-(2-methyl-1H-benzimidazol-1-yl)-N-(4-methylphenyl)pyridin-2-amine], the EC50 lay in the range of 10 to 100 nM.

As for `COc1ccc(Nc2cncc(-n3cnc4ccccc43)n2)cc1` [compound 1, 6-(1H-benzimidazol-1-yl)-N-(4-methoxyphenyl)pyrazin-2-amine], the EC50 is 10 to 100 nM. With `COCc1nc2ccccc2n1-c1cncc(Nc2ccc(C(F)(F)F)cc2)n1` [compound 65, 6-[2-(methoxymethyl)-1H-benzimidazol-1-yl]-N-[4-(trifluoromethyl)phenyl]pyrazin-2-amine], the EC50 lay in the range of 100 to 3000 nM.

Consider `Cc1nc2cc(F)c(F)cc2n1-c1cncc(Nc2ccc(NCCN(C)C)nc2)n1` [compound 430, N^5-[6-(5,6-difluoro-2-methyl-1H-benzimidazol-1-yl)pyrazin-2-yl]-N^2-[2-(dimethylamino)ethyl]pyridine-2,5-diamine], for which the half-maximal effective concentration (EC50) was in the range of 100 to 3000 nM. Still for that read-out and setting: the figure for `C/C(=N\O)c1ccc(Nc2cncc(-n3c(C)nc4ccccc43)n2)cc1` [compound 156, N-{4-[(1E)-N-hydroxyethanimidoyl]phenyl}-6-(2-methyl-1H-benzimidazol-1-yl)pyrazin-2-amine] is 1 to 10 nM; for `Cc1nn(C)c(C)c1-c1cncc(Nc2ccc(OC(F)(F)F)cc2)n1` [compound 105, N-[4-(trifluoromethoxy)phenyl]-6-(1,3,5-trimethyl-1H-pyrazol-4-yl)pyrazin-2-amine] it is 10 to 100 nM. Same read-out and setting: the figure for `Cc1ccc(Nc2cncc(-c3c(C(F)(F)F)nc4ccc(F)cn34)n2)cc1` [compound 671, 6-[6-fluoro-2-(trifluoromethyl)imidazo[1,2-a]pyridin-3-yl]-N-(4-methylphenyl)pyrazin-2-amine] is 100 to 3000 nM; for `N#Cc1cc(Nc2ccc(OC(F)F)c(F)c2)nc(-n2c(C3CC3)nc3c(F)cc(F)cc32)c1` [compound 476, 2-(2-cyclopropyl-4,6-difluoro-1H-benzimidazol-1-yl)-6-{[4-(difluoromethoxy)-3-fluorophenyl]amino}pyridine-4-carbonitrile] it is 10 to 100 nM; for `Cc1nc2ccccc2n1-c1cncc(Nc2ccc(OC(F)F)c(F)c2)n1` [compound 324, N-[4-(difluoromethoxy)-3-fluorophenyl]-6-(2-methyl-1H-benzimidazol-1-yl)pyrazin-2-amine] it is 10 to 100 nM. Still for that read-out and setting: the figure for `Cc1nc(C)n(-c2cncc(Nc3ccc(C(F)(F)F)cc3)n2)c1C` [compound 342, N-[4-(trifluoromethyl)phenyl]-6-(2,4,5-trimethyl-1H-imidazol-1-yl)pyrazin-2-amine] is 10 to 100 nM; for `Cc1nc2ccccc2n1-c1cc(F)cc(Nc2ccc(OC(F)F)cc2)n1` [compound 499, N-[4-(difluoromethoxy)phenyl]-4-fluoro-6-(2-methyl-1H-benzimidazol-1-yl)pyridin-2-amine] it is 10 to 100 nM.

With `Cc1nc2ncc(F)cn2c1-c1cncc(Nc2ccc(C(F)(F)F)cc2)n1` [compound 453, 6-(6-fluoro-2-methylimidazo[1,2-a]pyrimidin-3-yl)-N-[4-(trifluoromethyl)phenyl]pyrazin-2-amine], the EC50 fell in the range of 10 to 100 nM. Still for that read-out and setting: the figure for `Cc1nc2c(n1-c1cncc(Nc3ccc(OC(F)(F)F)cc3)n1)CCCC2` [compound 268, 6-(2-methyl-4,5,6,7-tetrahydro-1H-benzimidazol-1-yl)-N-[4-(trifluoromethoxy)phenyl]pyrazin-2-amine] is 10 to 100 nM; for `Cc1nc2ncncc2n1-c1cncc(Nc2ccc(C(F)(F)F)cc2)n1` [compound 371, 6-(8-methyl-7H-purin-7-yl)-N-[4-(trifluoromethyl)phenyl]pyrazin-2-amine] it is 100 to 3000 nM; for `FC(F)(F)c1ccc(Nc2cncc(-n3c(C(F)(F)F)nc4ccccc43)n2)cc1` [compound 14, 6-[2-(trifluoromethyl)-1H-benzimidazol-1-yl]-N-[4-(trifluoromethyl)phenyl]pyrazin-2-amine] it is 100 to 3000 nM.

Still in this assay, the particulars now being: read-out: ELISA EC50 value for Bmi-1 protein, Table 1, Bmi-1 sandwich ELISA.
Take `Nc1cc(Nc2ccc(C(F)(F)F)cc2)nc(-c2c(C(F)(F)F)nc3ccc(F)cn23)c1` [compound 287, 6-[6-fluoro-2-(trifluoromethyl)imidazo[1,2-a]pyridin-3-yl]-N^2-[4-(trifluoromethyl)phenyl]pyridine-2,4-diamine]: the EC50 fell in the range of 10 to 100 nM. For the molecule `COc1ccc(Nc2ccc(C#N)c(-c3c(C(F)(F)F)nc4ccccn34)n2)cc1` [Cpd 34, 6-[(4-methoxyphenyl)amino]-2-[2-(trifluoromethyl)imidazo[1,2-a]pyridin-3-yl]pyridine-3-carbonitrile], the EC50 was 100 to 3000 nM. Regarding `COc1ccc(Nc2cccc(-n3c(C(F)(F)F)nc4ccccc43)n2)cc1` [Cpd 33, N-(4-methoxyphenyl)-6-[2-(trifluoromethyl)-1H-benzimidazol-1-yl]pyridin-2-amine], the EC50 lay in the range of 10 to 100 nM.

Consider `FC(F)(F)c1ccc(Nc2cncc(-c3cnc4ccccn34)n2)cc1` [compound 235, 6-(imidazo[1,2-a]pyridin-3-yl)-N-[4-(trifluoromethyl)phenyl]pyrazin-2-amine], for which the EC50 lay in the range of 100 to 3000 nM.
